ChEMBL document CHEMBL5579840, “Optimization of diastereomeric dihydropyridines as antimalarials” (Eur J Med Chem, 2024)

What was measured:
Plasmodium falciparum [1] = assay: Antimalarial activity against chloroquine-resistant Plasmodium falciparum K1 infected in erythroctes incubated for 72 hrs by SYBR green 1 based spectrofluorometer; format: functional, organism-based, Erythrocyte
Plasmodium falciparum [2] = assay: Antimalarial activity against chloroquine-sensitive Plasmodium falciparum 3D7 infected in erythroctes incubated for 72 hrs by SYBR green 1 based spectrofluorometer; format: functional, organism-based, Erythrocyte
[3] = Cytotoxicity against mouse J774.A1 cells; format: toxicity, cell-based
[4] = Plasmodium falciparum, K1, Erythrocyte, 72 h
[5] = Plasmodium falciparum, 3D7, Erythrocyte, 72 h

For `CCOC(=O)C1=C(C)NC2=C(C(=O)OC(c3ccc(OC)c(OC)c3)C2)C1c1cccc(C)c1` (configuration not stated), the EC50 (Plasmodium falciparum [1]; [4]) was > 10 µM, the EC50 (Plasmodium falciparum [2]; [5]) was > 10 µM and the EC50 [3] was > 20 µM.

With `CCOC(=O)C1=C(C)NC2=C(C(=O)OC(c3ccc(OC)c(OC)c3)C2)C1c1ccc2ccccc2c1` (configuration not stated) the EC50 (Plasmodium falciparum [1]; [4]) was > 10 µM, the EC50 (Plasmodium falciparum [2]; [5]) was > 10 µM and the EC50 [3] was > 20 µM.

In the case of `CCOC(=O)C1=C(C)NC2=C(C(=O)OC(c3ccc(OC)c(OC)c3)C2)C1c1cccc2ccccc12` (configuration not stated), the EC50 (Plasmodium falciparum [1]; [4]) is reported as > 10 µM, the EC50 (Plasmodium falciparum [2]; [5]) is reported as > 10 µM and the EC50 [3] is reported as > 20 µM.

In the case of `CCOC(=O)C1=C(C)NC2=C(C(=O)OC(c3ccc(OC)c(OC)c3)C2)C1c1cccc(Cl)c1` (configuration not stated), the EC50 (Plasmodium falciparum [1]; [4]) is reported as > 10 µM, the EC50 (Plasmodium falciparum [2]; [5]) is reported as > 10 µM and the EC50 [3] is reported as > 20 µM.

For `CCOC(=O)C1=C(C)NC2=C(C(=O)OC(c3cccc(Cl)c3)C2)C1c1ccccc1Cl` (configuration not stated), the EC50 (Plasmodium falciparum [1]; [4]) was > 6 µM, the EC50 (Plasmodium falciparum [2]; [5]) was > 6 µM and the EC50 [3] was > 20 µM.

With `CCOC(=O)C1=C(C)NC2=C(C(=O)OC(c3ccc(OC)c(OC)c3)C2)C1c1ccc(-c2ccccc2)cc1` (configuration not stated) the EC50 (Plasmodium falciparum [1]; [4]) was > 10 µM, the EC50 (Plasmodium falciparum [2]; [5]) was > 10 µM and the EC50 [3] was > 20 µM.

With `CCOC(=O)C1=C(C)NC2=C(C(=O)OC(c3ccc(OC)c(OC)c3)C2)C1c1ccc(OC)cc1` (configuration not stated) the EC50 (Plasmodium falciparum [1]; [4]) was > 10 µM, the EC50 (Plasmodium falciparum [2]; [5]) was > 10 µM and the EC50 [3] was > 20 µM.

In the case of `CCOC(=O)C1=C(C)NC2=C(C(=O)OC(c3ccccc3C)C2)C1c1ccccc1Cl` (configuration not stated), the EC50 (Plasmodium falciparum [1]; [4]) is reported as > 5 µM, the EC50 (Plasmodium falciparum [2]; [5]) is reported as > 5 µM and the EC50 [3] is reported as > 20 µM.

In the case of `CCOC(=O)C1=C(C)NC2=C(C(=O)OC(c3ccc(OC)c(OC)c3)C2)C1c1cccc(OC)c1` (configuration not stated), the EC50 (Plasmodium falciparum [1]; [4]) is reported as > 10 µM, the EC50 (Plasmodium falciparum [2]; [5]) is reported as > 10 µM and the EC50 [3] is reported as > 20 µM.

In the case of `CCOC(=O)C1=C(C)NC2=C(C(=O)OC(c3ccc(OC)c(OC)c3)C2)C1c1ccccc1` (stereo in doubt; 1A), the EC50 (Plasmodium falciparum [1]; erythrocyte) is reported as > 7.4 µM, the EC50 (Plasmodium falciparum [2]; erythrocyte) is reported as > 7.4 µM and the EC50 [3] is reported as > 20 µM.

In the case of `CCOC(=O)C1=C(C)NC2=C(C(=O)CC(c3ccc(OC)c(OC)c3)C2)C1c1ccccc1Cl` (stereo in doubt; 2A), the EC50 (Plasmodium falciparum [1]; erythrocyte) is reported as 0.141 µM, the EC50 (Plasmodium falciparum [2]; erythrocyte) is reported as 0.165 µM and the EC50 [3] is reported as > 20 µM.

With `CCOC(=O)C1=C(C)NC2=C(C(=O)OC(c3ccc(OC)c(OC)c3)C2)C1c1ccccc1Cl` (stereo in doubt; 3A) the EC50 (Plasmodium falciparum [1]; erythrocyte) was 1.39 µM, the EC50 (Plasmodium falciparum [2]; erythrocyte) was 2.33 µM and the EC50 [3] was > 20 µM.

For `CCOC(=O)C1=C(C)NC2=C(C(=O)OC(c3ccc(OC)c(OC)c3)C2)C1c1ccc(Cl)cc1` (stereo in doubt; 5A), the EC50 (Plasmodium falciparum [1]; erythrocyte) was 0.633 µM, the EC50 (Plasmodium falciparum [2]; erythrocyte) was 0.769 µM and the EC50 [3] was > 20 µM.

For `CCOC(=O)C1=C(C)NC2=C(C(=O)OC(c3ccc(OC)c(OC)c3)C2)C1c1ccccc1C` (stereo in doubt; 6A), the EC50 (Plasmodium falciparum [1]; erythrocyte) was 2.05 µM, the EC50 (Plasmodium falciparum [2]; erythrocyte) was 1.27 µM and the EC50 [3] was > 20 µM.

For `CCOC(=O)C1=C(C)NC2=C(C(=O)OC(c3ccc(OC)c(OC)c3)C2)C1c1ccc(C)cc1` (stereo in doubt; 8A), the EC50 (Plasmodium falciparum [1]; erythrocyte) was > 10 µM, the EC50 (Plasmodium falciparum [2]; erythrocyte) was > 10 µM and the EC50 [3] was > 20 µM.

In the case of `CCOC(=O)C1=C(C)NC2=C(C(=O)OC(c3ccc(OC)c(OC)c3)C2)C1c1ccccc1OC` (stereo in doubt; 9A), the EC50 (Plasmodium falciparum [1]; [4]) is reported as > 5.6 µM, the EC50 (Plasmodium falciparum [2]; erythrocyte) is reported as > 5.6 µM and the EC50 [3] is reported as > 20 µM.

For `CCOC(=O)C1=C(C)NC2=C(C(=O)OC(c3ccc(OC)c(OC)c3)C2)C1c1ccc(Br)cc1` (stereo in doubt; 12A), the EC50 (Plasmodium falciparum [1]; erythrocyte) was 3.37 µM, the EC50 (Plasmodium falciparum [2]; erythrocyte) was 1.45 µM and the EC50 [3] was > 20 µM.

In the case of `CCOC(=O)C1=C(C)NC2=C(C(=O)OC(c3ccccc3)C2)C1c1ccccc1Cl` (stereo in doubt; 17A), the EC50 (Plasmodium falciparum [2]; [5]) is reported as > 9.5 µM and the EC50 [3] is reported as > 20 µM.

In the case of `COc1ccc(C2CC(=O)C3=C(C2)NC(C)=C(C(=O)O)C3c2ccccc2Cl)cc1OC` (stereo in doubt; 27A), the EC50 (Plasmodium falciparum [2]; [5]) is reported as > 15 µM and the EC50 [3] is reported as > 20 µM.

Compound `COCC1=C(C(=O)OC)C(c2ccc(Cl)cc2)C2=C(CC(c3cc(OC)c(OC)c(OC)c3)OC2=O)N1` (stereo in doubt; 56B) has an EC50 (Plasmodium falciparum [1]; erythrocyte) of 0.0423 µM and an EC50 (Plasmodium falciparum [2]; erythrocyte) of 0.029 µM.

Work on `CCN(CC)CCCC(C)Nc1ccnc2cc(Cl)ccc12` (configuration not stated) [CHLOROQUINE] yielded an EC50 (Plasmodium falciparum [1]; [4]) of 1.36 µM and an EC50 (Plasmodium falciparum [2]; [5]) of 0.048 µM.

For `OC(c1cc(C(F)(F)F)nc2c(C(F)(F)F)cccc12)C1CCCCN1` (configuration not stated) [MEFLOQUINE], the EC50 (Plasmodium falciparum [1]; [4]) was 0.031 µM and the EC50 (Plasmodium falciparum [2]; [5]) was 0.062 µM.

Compound `COc1cc([C@@H]2c3cc4c(cc3[C@H](O)[C@H]3COC(=O)[C@H]23)OCO4)cc(OC)c1OC` [PODOFILOX] has an EC50 [3] of 0.25 µM.
